These results are taken from ChEMBL document CHEMBL1914368, “Imidazo[1,5-a]quinoxalines as irreversible BTK inhibitors for the treatment of rheumatoid arthritis” (Bioorg Med Chem Lett, 2011).

A word on the IC50: it is the midpoint of a concentration-inhibition curve.

Experiment [1] concerns the target Tyrosine-protein kinase Lyn (Homo sapiens, UniProt P07948). Description: Inhibition of LYN-A expressed in Sf9 cells after 60 mins by TR-FRET Assay.
A short description of experiment [2]: Inhibition of anti-IgM-stimulated human B cell proliferation assessed as [3H]thymidine incorporation preincubated for 30 mins measured after 3 days. It is filed as functional, cell-based. Background: Incorporation of labelled thymidine or its analogues reports DNA synthesis.
Experiment [3] deals with Tyrosine-protein kinase BTK (Homo sapiens, UniProt Q06187). Description: Inhibition of human full-length BTK expressed in Sf9 cells using FAM-Srctide peptide as substrate after 60 mins by TR-FRET Assay. Background: TR-FRET usually uses a lanthanide donor and a delayed reading to cut background.
Tyrosine-protein kinase BTK, sequence (Q06187 whole entry): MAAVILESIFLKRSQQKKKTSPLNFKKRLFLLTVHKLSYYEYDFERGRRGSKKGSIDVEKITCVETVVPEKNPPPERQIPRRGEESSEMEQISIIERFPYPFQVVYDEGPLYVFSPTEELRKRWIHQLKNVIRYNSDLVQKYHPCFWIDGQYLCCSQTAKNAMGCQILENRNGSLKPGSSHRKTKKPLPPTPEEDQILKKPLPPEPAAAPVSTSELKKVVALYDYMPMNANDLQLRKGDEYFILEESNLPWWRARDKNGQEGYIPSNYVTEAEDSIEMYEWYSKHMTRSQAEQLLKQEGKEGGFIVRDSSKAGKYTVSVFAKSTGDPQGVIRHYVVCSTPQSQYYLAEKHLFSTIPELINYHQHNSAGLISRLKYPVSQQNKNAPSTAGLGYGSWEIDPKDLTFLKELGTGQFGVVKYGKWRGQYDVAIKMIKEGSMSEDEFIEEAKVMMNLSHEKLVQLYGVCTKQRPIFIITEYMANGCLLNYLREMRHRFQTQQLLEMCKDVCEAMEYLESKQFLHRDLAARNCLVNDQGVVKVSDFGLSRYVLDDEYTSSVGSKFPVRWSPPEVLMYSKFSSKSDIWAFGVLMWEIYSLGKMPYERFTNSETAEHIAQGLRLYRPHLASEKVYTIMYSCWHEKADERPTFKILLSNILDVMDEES
The mark [4] stands for this setting: Homo sapiens, B-cell, read-out: IC50.

Tyrosine-protein kinase Lyn, sequence (P07948 whole entry): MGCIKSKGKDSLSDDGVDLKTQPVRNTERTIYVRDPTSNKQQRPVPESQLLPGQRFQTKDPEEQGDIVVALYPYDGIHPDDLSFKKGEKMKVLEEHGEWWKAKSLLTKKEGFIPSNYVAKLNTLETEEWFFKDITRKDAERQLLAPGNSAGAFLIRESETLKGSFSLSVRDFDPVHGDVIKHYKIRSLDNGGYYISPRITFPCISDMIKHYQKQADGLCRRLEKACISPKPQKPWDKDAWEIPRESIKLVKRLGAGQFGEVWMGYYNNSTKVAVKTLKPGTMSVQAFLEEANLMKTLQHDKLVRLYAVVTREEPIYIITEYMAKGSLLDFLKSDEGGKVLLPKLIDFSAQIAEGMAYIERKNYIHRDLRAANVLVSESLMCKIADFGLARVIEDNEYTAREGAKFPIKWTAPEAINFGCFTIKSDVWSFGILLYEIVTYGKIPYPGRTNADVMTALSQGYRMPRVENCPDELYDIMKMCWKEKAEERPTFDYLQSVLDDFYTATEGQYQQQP

`Cc1ccc(Cl)cc1Nc1nc2ccc(N(C)C(=O)/C=C/CN(C)C)cc2n2cncc12`: the half-maximal inhibitory concentration (IC50) in experiment [1] was 1670 nM; in experiment [2] (setting [4]), 53.7 nM; in experiment [3] it was 13.2 nM.

As for `Cc1cc(F)ccc1Nc1nc2cc(F)c(N(C)C(=O)/C=C/CN(C)C)cc2n2cncc12`, the 50% inhibitory concentration (IC50) in experiment [1] is 3450 nM; in experiment [2] (setting [4]), 8.08 nM; in experiment [3], 5.35 nM.

For the molecule `Cc1ccc(NC(=O)c2cccc(C(F)(F)F)c2)cc1Nc1nc2ccc(N(C)C(=O)/C=C/CN(C)C)cc2n2cncc12`, the IC50 is 1.55 nM in experiment [1], “Not Active” in experiment [2] (b cell) and 16.8 nM in experiment [3].

For `Cc1ccc(F)cc1Nc1nc2cc(F)c(N(C)C(=O)/C=C/CN(C)C)cc2n2cncc12`, the IC50 in experiment [1] stood at 3080 nM; in experiment [2] (setting [4]), 23.5 nM; in experiment [3] it was 6.76 nM.

With `C=C(CN1CCOCC1)C(=O)Nc1cc2c(cc1OC)nc(Nc1ccccc1C)c1cncn12`, the results for the IC50 in experiment [1] and in experiment [3] were 297 nM and 2.52 nM, respectively.

As for `COc1cc2nc(Nc3ccccc3C)c3cncn3c2cc1NC(=O)C#CCN1CCCCC1`, the IC50 in experiment [1] is 21.3 nM; in experiment [3] it was 0.847 nM.

As for `Cc1ccc(O)cc1Nc1nc2ccc(N(C)C(=O)/C=C/CN(C)C)cc2n2cncc12`, the IC50 in experiment [1] was determined as 10.9 nM; in experiment [2] (setting [4]), 2.56 nM; in experiment [3], 1.55 nM.

As to `Cc1ccccc1Nc1nc2cc(Cl)c(N(C)C(=O)/C=C/CN(C)C)cc2n2cncc12`, the concentration for half-maximal inhibition (IC50) in experiment [1] turned out to be 1300 nM; in experiment [2] (setting [4]), 2.17 nM; in experiment [3], 4.83 nM.

`CN(C)C/C=C/C(=O)N(C)c1ccc2nc(Cl)c3cncn3c2c1`: the IC50 in experiment [1] is greater than 50000 nM; in experiment [2] (b cell) it was “Not Active”; in experiment [3] it was 4290 nM.

As to `Cc1cc(F)ccc1Oc1nc2cc(F)c(N(C)C(=O)/C=C/CN(C)C)cc2n2cncc12`, the results for the IC50 in experiment [1], in experiment [2] (setting [4]) and in experiment [3] were 10400 nM, 32.3 nM and 9.53 nM, respectively.

Consider `Cc1cc(Cl)ccc1Nc1nc2ccc(N(C)C(=O)/C=C/CN(C)C)cc2n2cncc12`, for which the IC50 in experiment [1] came to 378 nM; in experiment [2] (setting [4]) it was 4.12 nM; in experiment [3] it was 7.56 nM.

Consider `Cc1ccc(F)cc1Oc1nc2cc(F)c(N(C)C(=O)/C=C/CN(C)C)cc2n2cncc12`, for which the IC50 in experiment [1] came out at 7400 nM; in experiment [2] (setting [4]), 144 nM; in experiment [3] it was 13 nM.

Turning to `Cc1cc(O)ccc1Nc1nc2ccc(N(C)C(=O)/C=C/CN(C)C)cc2n2cncc12`, the figures for the IC50 in experiment [1], in experiment [2] (setting [4]) and in experiment [3] were 350 nM, 1.02 nM and 12.2 nM, respectively.

As to `CNc1ccc2nc(Oc3ccc(F)cc3C)c3cncn3c2c1`, the IC50 in experiment [1] was found to be 560 nM; in experiment [3], 1220 nM.

Regarding `COc1cc2nc(Nc3ccccc3C)c3cncn3c2cc1NC(=O)C#CCN1CCOCC1`, the IC50 in experiment [1] was 46.6 nM; in experiment [3], 0.847 nM.

Regarding `COc1cc2nc(Nc3ccccc3C)c3cncn3c2cc1N(CC1CC1)C(=O)/C=C/CN(C)C`, the figures for the IC50 in experiment [1], in experiment [2] (setting [4]) and in experiment [3] were 1980 nM, 43.1 nM and 45.3 nM, respectively.

In the case of `Cc1c(F)cccc1Nc1nc2ccc(N(C)C(=O)/C=C/CN(C)C)cc2n2cncc12`, the results for the IC50 in experiment [1], in experiment [2] (setting [4]) and in experiment [3] were 327 nM, 3.17 nM and 1.89 nM, respectively.

On to `Cc1cc(F)ccc1Nc1nc2cc(Cl)c(N(C)C(=O)/C=C/CN(C)C)cc2n2cncc12`, for which the IC50 in experiment [1] came to 1590 nM; in experiment [2] (setting [4]), 2.41 nM; in experiment [3] it was 9.53 nM.

On to `CN(C)C/C=C/C(=O)N(C)c1cc2c(cc1Cl)nc(Nc1ccccc1Cl)c1cncn12`, for which the 50% inhibitory concentration (IC50) in experiment [1] worked out at 2000 nM; in experiment [2] (setting [4]), 4.4 nM; in experiment [3], 5.03 nM.

`COc1cc2nc(Nc3ccccc3C)c3cncn3c2cc1NC(=O)/C=C/CN(C)C`: the IC50 in experiment [1] is 10.9 nM; in experiment [2] (b cell), “Not Active”; in experiment [3], 0.884 nM.

As for `CNc1cc2c(cc1F)nc(Oc1ccccc1C)c1cncn12`, the concentration for half-maximal inhibition (IC50) turned out to be 130 nM in experiment [1] and 670 nM in experiment [3].

As to `CNc1cc2c(cc1F)nc(Nc1ccccc1C)c1cncn12`, the IC50 in experiment [1] amounted to 19 nM; in experiment [3] it was 40 nM.

For `CNc1ccc2nc(Nc3cc(F)ccc3C)c3cncn3c2c1`, the IC50 stood at 40 nM in experiment [1] and 72 nM in experiment [3].

Turning to `Cc1ccccc1Sc1nc2ccc(N(C)C(=O)/C=C/CN(C)C)cc2n2cncc12`, the IC50 in experiment [1] amounted to 19600 nM; in experiment [2] (setting [4]), 651 nM; in experiment [3], 283 nM.

Regarding `Cc1ccccc1Nc1nc2ccc(N(C)C(=O)/C=C/CN(C)C)cc2n2cncc12`, the figures for the IC50 in experiment [1], in experiment [2] (setting [4]) and in experiment [3] were 623 nM, 3.17 nM and 3.99 nM, respectively.

`CN(C)C/C=C/C(=O)N(C)c1cc2c(cc1F)nc(Nc1ccccc1Cl)c1cncn12`: the figures for the IC50 in experiment [1], in experiment [2] (setting [4]) and in experiment [3] were 2130 nM, 6.75 nM and 1.82 nM, respectively.

As to `Cc1ccccc1Oc1nc2cc(F)c(N(C)C(=O)/C=C/CN(C)C)cc2n2cncc12`, the results for the IC50 in experiment [1], in experiment [2] (setting [4]) and in experiment [3] were 6020 nM, 17.4 nM and 5.51 nM, respectively.

For `CCN(C(=O)/C=C/CN(C)C)c1cc2c(cc1OC)nc(Nc1ccccc1C)c1cncn12`, the concentration for half-maximal inhibition (IC50) in experiment [1] came out at 533 nM; in experiment [2] (setting [4]), 16.1 nM; in experiment [3], 19.1 nM.

With `Cc1c(Cl)cccc1Nc1nc2ccc(N(C)C(=O)/C=C/CN(C)C)cc2n2cncc12`, the results for the IC50 in experiment [1], in experiment [2] (b cell) and in experiment [3] were 2320 nM, “Not Active” and 60.6 nM, respectively.

Take `Cc1cccc(Cl)c1Nc1nc2ccc(N(C)C(=O)/C=C/CN(C)C)cc2n2cncc12`: the IC50 in experiment [1] was 44.4 nM; in experiment [2] (b cell), “Not Active”; in experiment [3] it was 10.3 nM.

In the case of `Cc1cccc(O)c1Nc1nc2ccc(N(C)C(=O)/C=C/CN(C)C)cc2n2cncc12`, the values for the IC50 in experiment [1], in experiment [2] (setting [4]) and in experiment [3] were 167 nM, 44.9 nM and 10.4 nM, respectively.

Regarding `Cc1c(O)cccc1Nc1nc2ccc(N(C)C(=O)/C=C/CN(C)C)cc2n2cncc12`, the IC50 in experiment [1] is 490 nM; in experiment [2] (b cell), “Not Active”; in experiment [3], 76.5 nM.

As for `Cc1cc(F)ccc1Nc1nc2ccc(N(C)C(=O)/C=C/CN(C)C)cc2n2cncc12`, the results for the IC50 in experiment [1], in experiment [2] (setting [4]) and in experiment [3] were 716 nM, 2 nM and 2.96 nM, respectively.
